# Reference: ChEMBL document CHEMBL1201862, “PubChem BioAssay data set” (2004)
# Counter-ions that a name gives are not always drawn. Activity calls are given as the source filed them.
# Assays:
# [1] = target: T1, Heat shock factor protein 1 (Mus musculus, UniProt P38532); experiment: inhibition of MG132-induced HSE-luciferase signal, confirmation, cell-based, NIH3T3, luminescence, dose retest (AID 2382); type: functional;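 note: NIH3T3 fibroblasts with HSF1-driven luciferase reporter stressed by proteasome inhibitor MG132; luminescence from HSF1-driven luciferase expression after 8 hours of MG132 stress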
# T1 sequence (P38532 whole entry): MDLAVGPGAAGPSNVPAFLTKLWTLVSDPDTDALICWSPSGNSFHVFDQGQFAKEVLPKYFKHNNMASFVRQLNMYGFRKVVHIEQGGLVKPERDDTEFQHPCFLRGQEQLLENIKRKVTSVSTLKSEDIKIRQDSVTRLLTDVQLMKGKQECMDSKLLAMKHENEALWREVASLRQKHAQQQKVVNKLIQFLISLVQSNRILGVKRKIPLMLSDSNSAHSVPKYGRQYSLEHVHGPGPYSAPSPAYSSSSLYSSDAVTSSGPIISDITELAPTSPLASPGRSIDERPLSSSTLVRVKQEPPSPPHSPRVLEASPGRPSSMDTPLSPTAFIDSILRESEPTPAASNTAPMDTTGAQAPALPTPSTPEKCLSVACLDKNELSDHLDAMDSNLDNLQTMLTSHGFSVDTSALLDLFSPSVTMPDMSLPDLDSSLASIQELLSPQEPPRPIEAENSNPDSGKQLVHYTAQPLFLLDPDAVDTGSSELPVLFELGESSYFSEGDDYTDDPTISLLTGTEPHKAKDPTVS
# [2] = HEp-2 cell cytotoxicity, dose response, cytotoxicity control for RSV inhibitor project, HTS (AID 2410); type: functional; details: human respiratory syncytial virus
# [3] = target: T2, Rac GTPase-activating protein 1 (Homo sapiens, UniProt Q9H0H5); experiment: MgcRacGAP GTPase-activating activity inhibitors, confirmation, biochemical, ADP Hunter fluorescence, primary and confirmatory (AID 624330); type: functional
# T2 sequence (Q9H0H5 whole entry): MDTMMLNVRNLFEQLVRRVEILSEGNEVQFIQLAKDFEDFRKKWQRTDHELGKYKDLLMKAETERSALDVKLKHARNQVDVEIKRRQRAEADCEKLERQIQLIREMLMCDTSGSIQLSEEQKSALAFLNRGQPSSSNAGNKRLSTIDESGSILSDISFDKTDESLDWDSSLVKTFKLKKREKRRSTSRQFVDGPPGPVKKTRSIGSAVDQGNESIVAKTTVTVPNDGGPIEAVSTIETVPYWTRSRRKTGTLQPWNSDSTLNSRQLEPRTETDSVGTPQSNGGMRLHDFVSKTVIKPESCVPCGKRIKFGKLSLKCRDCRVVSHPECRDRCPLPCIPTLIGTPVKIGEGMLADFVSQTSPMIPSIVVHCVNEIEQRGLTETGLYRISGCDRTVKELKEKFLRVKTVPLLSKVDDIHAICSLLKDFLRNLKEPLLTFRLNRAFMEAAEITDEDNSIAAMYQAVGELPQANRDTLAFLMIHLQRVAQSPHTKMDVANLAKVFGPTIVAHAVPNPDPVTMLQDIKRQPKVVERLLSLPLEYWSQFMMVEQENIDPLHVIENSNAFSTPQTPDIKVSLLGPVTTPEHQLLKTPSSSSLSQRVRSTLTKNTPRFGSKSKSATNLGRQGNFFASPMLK
# [4] = target: Cytochrome P450 2C9 (Homo sapiens, UniProt P11712)
# [5] = target: T3, Cytochrome P450 1A2 (Homo sapiens, UniProt P05177);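 note: PubChem cytochrome P450 panel assay, CYP1A2 panel member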
# T3 sequence (P05177 whole entry): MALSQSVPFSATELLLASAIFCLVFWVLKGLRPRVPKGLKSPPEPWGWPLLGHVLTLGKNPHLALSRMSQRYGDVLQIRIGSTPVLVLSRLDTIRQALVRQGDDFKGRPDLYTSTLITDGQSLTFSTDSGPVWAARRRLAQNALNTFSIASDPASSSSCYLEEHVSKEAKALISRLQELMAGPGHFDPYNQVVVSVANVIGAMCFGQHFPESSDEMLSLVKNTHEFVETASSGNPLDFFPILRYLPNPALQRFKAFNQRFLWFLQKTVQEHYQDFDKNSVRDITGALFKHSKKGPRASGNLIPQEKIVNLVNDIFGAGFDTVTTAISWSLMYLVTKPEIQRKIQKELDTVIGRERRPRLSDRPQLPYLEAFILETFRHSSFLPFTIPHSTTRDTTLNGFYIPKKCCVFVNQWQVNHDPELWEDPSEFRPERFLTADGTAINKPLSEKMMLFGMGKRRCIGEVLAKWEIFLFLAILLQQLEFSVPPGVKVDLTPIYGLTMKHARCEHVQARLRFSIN
# [6] = target: Cytochrome P450 3A4 (Homo sapiens, UniProt P08684);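 note: CYP3A4 tested as one member of a cytochrome P450 panel screen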
# [7] = target: Cytochrome P450 2C19 (Homo sapiens, UniProt P33261); experiment: Cytochrome panel assay with activity outcomes. Panel member name: p450-cyp2c19 Compounds with AC50 equal or less than 10 uM are considered active; type: functional; details: read-out: AC50
# [8] = target: T4, Streptokinase A (Streptococcus pyogenes serotype M1, UniProt P10520); experiment: S. pyogenes streptokinase expression inhibitors, potency, dose response, plasminogen activation absorbance, OD405 (AID 1914); type: functional, Streptococcus pyogenes M1 GAS;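 note: secreted streptokinase activity via plasminogen activation per viability signal from cell pellet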
# T4 sequence (P10520 whole entry): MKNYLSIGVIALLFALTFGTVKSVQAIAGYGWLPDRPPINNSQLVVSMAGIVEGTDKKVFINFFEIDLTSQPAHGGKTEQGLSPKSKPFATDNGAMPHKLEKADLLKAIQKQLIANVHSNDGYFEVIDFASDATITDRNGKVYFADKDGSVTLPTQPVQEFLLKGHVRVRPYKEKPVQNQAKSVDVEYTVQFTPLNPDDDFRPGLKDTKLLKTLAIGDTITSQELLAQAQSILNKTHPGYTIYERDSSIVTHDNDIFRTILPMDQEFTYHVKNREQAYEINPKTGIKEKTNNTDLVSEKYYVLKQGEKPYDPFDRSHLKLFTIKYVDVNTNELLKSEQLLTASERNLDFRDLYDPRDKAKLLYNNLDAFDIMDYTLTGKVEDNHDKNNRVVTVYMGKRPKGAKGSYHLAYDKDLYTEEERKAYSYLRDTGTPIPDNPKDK
# [9] = system: Streptococcus; experiment: Group A Streptococcus viability loss, dose response, counter-screen for streptokinase expression inhibitor project, luminescence, BacTiterGlo (AID 1915); type: functional, organism-based;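 note: potency for reduction of bacterial viability or growth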
# [10] = system: Streptococcus sp. 'group A'; experiment: growth inhibition of control SK(-) GAS strain, dose response, counter-screen for streptokinase expression inhibitor project, luminescence, kanamycin, BacTiterGlo, confirmation (AID 1900); type: functional, organism-based
# [11] = Luminescence Cell-Based Dose Retest to Confirm Inhibitors of Cancer Stem Cells. [Related pubchem assays (depositor defined):AID2717, AID2721]; type: functional; details: Homo sapiens
# Chain of Cytochrome P450 2C9 (P11712 whole entry): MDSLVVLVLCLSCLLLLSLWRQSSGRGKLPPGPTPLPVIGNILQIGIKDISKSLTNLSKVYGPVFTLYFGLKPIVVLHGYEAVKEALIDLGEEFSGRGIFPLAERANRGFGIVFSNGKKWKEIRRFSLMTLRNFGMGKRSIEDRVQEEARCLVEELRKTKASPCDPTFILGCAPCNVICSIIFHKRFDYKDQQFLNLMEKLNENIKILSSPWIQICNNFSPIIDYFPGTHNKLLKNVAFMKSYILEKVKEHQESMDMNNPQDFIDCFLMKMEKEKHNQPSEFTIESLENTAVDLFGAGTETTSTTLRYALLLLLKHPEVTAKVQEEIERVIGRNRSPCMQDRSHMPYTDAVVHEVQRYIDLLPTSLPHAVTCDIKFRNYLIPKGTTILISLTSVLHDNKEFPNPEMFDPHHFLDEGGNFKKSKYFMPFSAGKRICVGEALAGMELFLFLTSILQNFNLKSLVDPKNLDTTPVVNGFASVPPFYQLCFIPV
# Chain of Cytochrome P450 3A4 (P08684 whole entry): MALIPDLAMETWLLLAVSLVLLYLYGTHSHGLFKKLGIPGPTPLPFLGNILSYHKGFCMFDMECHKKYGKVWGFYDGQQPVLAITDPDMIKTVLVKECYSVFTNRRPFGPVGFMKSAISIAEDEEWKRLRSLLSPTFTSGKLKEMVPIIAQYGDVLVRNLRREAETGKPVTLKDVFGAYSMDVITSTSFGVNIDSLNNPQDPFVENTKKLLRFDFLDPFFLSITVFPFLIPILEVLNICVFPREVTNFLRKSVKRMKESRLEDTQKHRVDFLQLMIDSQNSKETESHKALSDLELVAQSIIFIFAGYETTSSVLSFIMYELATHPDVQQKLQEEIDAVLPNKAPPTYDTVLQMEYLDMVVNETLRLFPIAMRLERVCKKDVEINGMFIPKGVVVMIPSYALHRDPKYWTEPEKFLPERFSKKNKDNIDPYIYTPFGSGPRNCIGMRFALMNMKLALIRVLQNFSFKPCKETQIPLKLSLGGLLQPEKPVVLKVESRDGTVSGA
# Chain of Cytochrome P450 2C19 (P33261 whole entry): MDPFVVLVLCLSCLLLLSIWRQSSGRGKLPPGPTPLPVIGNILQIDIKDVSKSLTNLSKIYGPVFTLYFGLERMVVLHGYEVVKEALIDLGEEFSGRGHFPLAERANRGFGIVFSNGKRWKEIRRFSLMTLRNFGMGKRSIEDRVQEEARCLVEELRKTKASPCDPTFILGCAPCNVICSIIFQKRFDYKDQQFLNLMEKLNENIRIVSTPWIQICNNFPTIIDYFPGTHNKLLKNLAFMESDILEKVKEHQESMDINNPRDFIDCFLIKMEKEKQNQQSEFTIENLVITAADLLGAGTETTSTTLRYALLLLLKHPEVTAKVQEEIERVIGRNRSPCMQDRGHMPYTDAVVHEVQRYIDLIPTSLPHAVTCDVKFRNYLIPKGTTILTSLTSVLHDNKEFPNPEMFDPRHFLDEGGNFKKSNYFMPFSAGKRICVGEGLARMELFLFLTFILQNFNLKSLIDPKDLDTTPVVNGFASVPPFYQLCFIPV
smiles,measurement,setting,value
NC(=O)Cc1ccc(C(=O)c2ccc(Cl)cc2)s1,EC50,[1],> 195 µM (not active)
CCOC(=O)c1cc(-c2ccccc2)sc1NC(=O)C(C)OC(=O)c1ccncc1 (stereo unspecified),CC50,[2],47.6 µM (active)
CCCN1CCC(=O)N([C@H](CSc2ccccc2)Cc2ccccc2)CC1,EC50,[1],> 195 µM (not active)
Cn1c(=O)c2ccccc2n(Cc2ccccc2Cl)c1=O,EC50,[1],> 195 µM (not active)
CC(C)c1ccc(NC(=O)CNCC(c2ccccc2)N(C)C)cc1 (stereo unspecified),IC50,[3],109 µM (active)
COc1ccc(NC(=O)CCN2CCN(S(=O)(=O)c3ccc(OC)cc3)CC2)cc1,EC50,[1],> 195 µM (not active)
CCOC(=O)C1CCN(C(=O)COc2cc(C)c(Br)cc2C)CC1,EC50,[1],> 195 µM (not active)
Cc1ccccc1OCC(=O)NCCS(=O)(=O)N1CCN(c2ccc(F)cc2)CC1,CC50,[2],38.1 µM (active)
COC(=O)[C@@]1(Cc2ccc(F)cc2)[C@H]2c3cc(C(=O)N(C)C)n(Cc4ccc(S(C)(=O)=O)cc4)c3C[C@H]2CN1C(=O)c1ccccc1,AC50,[4],15.8 µM (inconclusive)
same,AC50,[5],25.1 µM (inconclusive)
Cc1ccc(NC(=O)[C@@H](C)NC(=O)[C@@H]2Cc3ccccc3CN2)cc1,EC50,[1],> 195 µM (not active)
COCCNC(=O)/C(C#N)=C/c1ccc(-c2ccc(OC)cc2[N+](=O)[O-])o1,AC50,[4],39.8 µM (inconclusive)
same,AC50,[5],2 µM (inconclusive)
same,AC50,[6],3.16 µM (inconclusive)
same,AC50,[7],3.55 µM (inconclusive)
c1cncc(-c2nnc(SCc3nc4ccccc4[nH]3)o2)c1,EC50,[1],126 µM (active)
O=C(OCCN1CCN(c2ncc(C(F)(F)F)cc2Cl)CC1)c1ccc(Cl)cc1,EC50,[1],> 195 µM (not active)
N#CCCn1nnc(-c2ccccc2F)n1,EC50,[1],> 195 µM (not active)
Cc1ccc(NC(=O)CC2C(=O)N(Cc3ccccc3)C(=S)N2NC(=O)c2ccccc2)c(C)c1 (stereo unspecified),CC50,[2],> 50 µM (active)
CCc1nc(NCCO)c(C#N)c2c1CCCC2,CC50,[2],30.6 µM (active)
Cc1csc(Nc2ccc(Cl)cc2)[n+]1-c1ccc(Cl)cc1,EC50,[8],29.9 µM (active)
same,EC50,[9],> 150 µM (not active)
same,EC50,[10],12.9 µM (active)
O=C(c1ccc(F)cc1)N1CCN(c2cc(N3CCCCC3)c(F)cc2[N+](=O)[O-])CC1,CC50,[2],16.6 µM (active)
CC(C)N(C(=O)CSc1nc(COc2ccccc2)nc2ccccc12)C(C)C,CC50,[2],23.7 µM (active)
CC(C)(C)Cc1nnc(NS(=O)(=O)c2ccc(F)cc2)s1,EC50,[1],> 195 µM (not active)
COc1ccc2oc(C(=O)OCC(=O)NC3(C#N)CCCC3)c(C)c2c1,EC50,[8],> 150 µM (not active)
same,EC50,[9],> 150 µM (not active)
same,EC50,[10],57.9 µM (active)
O=C(CNC1CC1)Nc1cc(C(F)(F)F)ccc1Cl,IC50,[3],123 µM (active)
CCO[C@H]1OC(C(=O)NCc2ccccc2)=C[C@@H](c2ccc(Br)cc2)[C@@H]1CCCO,CC50,[2],22 µM (active)
Cn1c(CNC(=O)CNC(=O)c2ccc(F)cc2)cc(=O)n(C)c1=O,EC50,[8],> 150 µM (not active)
same,EC50,[9],> 150 µM (not active)
same,EC50,[10],> 150 µM (not active)
COc1cc(OC)c(C(=O)Nc2ccc(N(C)C)cc2)cc1OC,IC50,[3],22.1 µM (active)
COc1nc(-c2ccc(C)cc2)ccc1-c1noc(-c2cccnc2)n1,CC50,[2],31.1 µM (active)
Nc1nc(CN2CCN(c3ccc(F)cc3)CC2)nc(N2CCCc3ccccc32)n1,EC50,[8],> 150 µM (not active)
same,EC50,[9],> 150 µM (not active)
same,EC50,[10],2.01 µM (active)
CCOC(=O)c1sc(NC(=O)c2ccc(S(=O)(=O)N3CCCCCC3)cc2)nc1-c1ccccc1,CC50,[2],7.07 µM (active)
COc1ccc(C2NS(=O)(=O)N=C2N)cc1 (stereo unspecified),EC50,[1],> 195 µM (not active)
Cc1ccc(C(=O)Nc2ccc(C(=O)O)cc2NC(=O)c2ccc(C)cc2)cc1,EC50,[1],14.7 µM (active)
c1ccc(-c2nnc3sc(CN4CCc5ccccc54)cn23)cc1,AC50,[11],7.58 µM (active)
COC(=O)C1=C(C)N(CCCC(=O)O)C(=O)NC1c1ccc(C#N)cc1 (stereo unspecified),EC50,[1],> 195 µM (not active)
Cc1ccccc1C(=O)NC(NCc1ccco1)C(Cl)(Cl)Cl (stereo unspecified),AC50,[4],0.0398 µM (inconclusive)
same,AC50,[5],14.1 µM (inconclusive)
same,AC50,[6],25.1 µM (inconclusive)
CC(=O)NC(Cc1ccccc1)C(=O)Oc1ccc2ccccc2c1 (stereo unspecified),IC50,[3],39.7 µM (active)
Clc1ccc(/C=C/c2nc(Cl)c(-c3ccc(Cl)cc3)c(Cl)n2)cc1,EC50,[8],10 µM (active)
same,EC50,[9],> 150 µM (not active)
same,EC50,[10],33 µM (active)
N[C@@H](Cn1cc(I)c(=O)n(Cc2ccc(C(=O)O)cc2)c1=O)C(=O)O,AC50,[5],31.6 µM (inconclusive)
same,AC50,[7],39.8 µM (inconclusive)
CCOc1ccc(/C=N/NC(=S)NC2CC3C=CC2C3)cc1 (stereo unspecified),EC50,[8],> 150 µM (not active)
same,EC50,[9],> 150 µM (not active)
same,EC50,[10],> 150 µM (not active)
N#C/C(=C\c1c(Cl)cccc1Cl)c1nc2ccccc2[nH]1,CC50,[2],20.3 µM (active)
COc1ccc(NC(C)C(=O)N/N=C/c2c(O)ccc3ccccc23)cc1 (stereo unspecified),EC50,[9],1.25 µM (active)
same,EC50,[10],1.95 µM (active)
C=CCn1/c(=N/C(=O)C2COc3ccccc3O2)sc2cccc(OC)c21 (stereo unspecified),CC50,[2],18.4 µM (active)
Cc1ccc(C(C)C)c(OCc2ccc(C(=O)N/N=C/c3ccc(O)c(O)c3)cc2)c1,AC50,[11],3.23 µM (active)
Cc1cccc(N2CCC(/N=C/N(C)C)=N2)c1,IC50,[3],29.2 µM (active)
Cc1cc(N/N=C/c2ccccc2Cl)nc(NCc2ccccc2)n1,AC50,[11],3.88 µM (active)
COc1cc(/C(C)=N/N2CCN(c3ccccc3OC)CC2)ccc1O,IC50,[3],208 µM (active)
Cn1c(=O)[nH]c(=O)c2c1[nH]c(=S)n2Cc1ccc(Cl)cc1,IC50,[3],31.7 µM (active)
Cc1ccsc1/C=C/C1=NCCCN1C [MORANTEL TARTRATE],EC50,[1],> 195 µM (not active)
